One molecule from paper PMC5218480 (PLoS ONE, 2017) can be followed below.

This assay concerns MV-4-11 cells. In words: Gene expression microarray analysis (Affymetrix PrimeView) and GSEA. The class given is cell-based, human. Also noted: RFU PODN (11730768_x_at) / Fold change /veh PODN (11730768_x_at) / RFU LINC00158 (11744669_a_at) / Fold change /veh LINC00158 (11744669_a_at) / RFU DUSP10 (11751237_a_at) / Fold change /veh DUSP10 (11751237_a_at) / RFU ID3 (11757404_x_at) / Fold change /veh ID3 (11757404_x_at) / RFU PLEKHG5 (11737974_s_at) / Fold change /veh PLEKHG5 (11737974_s_at) / RFU LRRC4B (11730491_at) / Fold change /veh LRRC4B (11730491_at) / RFU GIMAP4 (11747438_a_at) / Fold change /veh GIMAP4 (11747438_a_at) / RFU KRT8 (11758183_x_at) / Fold change /veh KRT8 (11758183_x_at) / RFU CNN1 (11734310_a_at) / Fold change /veh CNN1 (11734310_a_at) / RFU VPS37D (11726825_at) / Fold change /veh VPS37D (11726825_at) / RFU C10orf10 (11716522_x_at) / Fold change /veh C10orf10 (11716522_x_at) / RFU KIR2DL2 /// KIR2DL4 /// KIR2DL5A /// KIR2DL5B /// KIR2DS1 /// KIR2DS2 /// KIR2DS3 /// KIR2DS4 /// KIR3DL3 /// KIR3DL3 /// KIR3DS1 (11738374_at) / Fold change /veh KIR2DL2 /// KIR2DL4 /// KIR2DL5A /// KIR2DL5B /// KIR2DS1 /// KIR2DS2 /// KIR2DS3 /// KIR2DS4 /// KIR3DL3 /// KIR3DL3 /// KIR3DS1 (11738374_at) / RFU C1QL1 (11718748_at) / Fold change /veh C1QL1 (11718748_at) / RFU TMPRSS4 (11747572_a_at) / Fold change /veh TMPRSS4 (11747572_a_at) / RFU HAMP (11756126_x_at) / Fold change /veh HAMP (11756126_x_at) / RFU RNFT2 (11725882_a_at) / Fold change /veh RNFT2 (11725882_a_at) / RFU NR4A2 (11747474_a_at) / Fold change /veh NR4A2 (11747474_a_at) / RFU ABCC12 (11746883_a_at) / Fold change /veh ABCC12 (11746883_a_at) / RFU TMEM136 (11760407_x_at) / Fold change /veh TMEM136 (11760407_x_at) / RFU CLDN22 /// WWC2 (11732394_at) / Fold change /veh CLDN22 /// WWC2 (11732394_at) / RFU HLA-DPB1 (11760878_x_at) / Fold change /veh HLA-DPB1 (11760878_x_at) / RFU SPINT1 (11716480_a_at) / Fold change /veh SPINT1 (11716480_a_at) / RFU GAP43 (11754022_s_at) / Fold change /veh GAP43 (11754022_s_at) / RFU A4GNT (11735810_at) / Fold change /veh A4GNT (11735810_at) / RFU PRB3 (11715151_x_at) / Fold change /veh PRB3 (11715151_x_at) / RFU TUBB4B (11761932_at) / Fold change /veh TUBB4B (11761932_at) / RFU CAPN14 (11732068_a_at) / Fold change /veh CAPN14 (11732068_a_at) / RFU TMCC2 (11721928_a_at) / Fold change /veh TMCC2 (11721928_a_at) / RFU IRGQ (11745062_a_at) / Fold change /veh IRGQ (11745062_a_at) / RFU FAM174B (11720279_a_at) / Fold change /veh FAM174B (11720279_a_at) / RFU TMPRSS4 (11748680_a_at) / Fold change /veh TMPRSS4 (11748680_a_at) / RFU FAM212B (11763350_a_at) / Fold change /veh FAM212B (11763350_a_at) / RFU PLEKHG5 (11743358_a_at) / Fold change /veh PLEKHG5 (11743358_a_at) / RFU ZSCAN30 (11745921_a_at) / Fold change /veh ZSCAN30 (11745921_a_at) / RFU CMKLR1 (11741424_a_at) / Fold change /veh CMKLR1 (11741424_a_at) / RFU LOC101060620 /// MAPK8IP1 (11723275_at) / Fold change /veh LOC101060620 /// MAPK8IP1 (11723275_at) / RFU SPTSSB (11747773_x_at) / Fold change /veh SPTSSB (11747773_x_at) / RFU PRSS12 (11739890_at) / Fold change /veh PRSS12 (11739890_at) / RFU BIN1 (11741810_x_at) / Fold change /veh BIN1 (11741810_x_at) / RFU WNT11 (11732464_a_at) / Fold change /veh WNT11 (11732464_a_at) / RFU C10orf10 (11716521_a_at) / Fold change /veh C10orf10 (11716521_a_at) / RFU C5orf56 (11738089_at) / Fold change /veh C5orf56 (11738089_at) / RFU CYB561 (11721691_x_at) / Fold change /veh CYB561 (11721691_x_at) / RFU ANKRD19P (11752326_a_at) / Fold change /veh ANKRD19P (11752326_a_at) / RFU OR2T12 /// OR2T33 /// OR2T8 (11738714_s_at) / Fold change /veh OR2T12 /// OR2T33 /// OR2T8 (11738714_s_at) / RFU VCAN (11748164_a_at) / Fold change /veh VCAN (11748164_a_at) / RFU JSRP1 (11732532_at) / Fold change /veh JSRP1 (11732532_at) / RFU KRTAP10-11 (11738290_x_at) / Fold change /veh KRTAP10-11 (11738290_x_at) / RFU MYO3A (11730013_a_at) / Fold change /veh MYO3A (11730013_a_at) / RFU EBF3 (11725865_a_at) / Fold change /veh EBF3 (11725865_a_at) / RFU CAMK2N1 (11719241_x_at) / Fold change /veh CAMK2N1 (11719241_x_at) / RFU C5orf56 (11738088_a_at) / Fold change /veh C5orf56 (11738088_a_at) / RFU OLFML3 (11715873_a_at) / Fold change /veh OLFML3 (11715873_a_at) / RFU LOC100653217 /// NTM (11731650_a_at) / Fold change /veh LOC100653217 /// NTM (11731650_a_at) / RFU MAPK11 (11762145_a_at) / Fold change /veh MAPK11 (11762145_a_at) / RFU FIZ1 (11724087_x_at) / Fold change /veh FIZ1 (11724087_x_at) / RFU OASL (11726364_x_at) / Fold change /veh OASL (11726364_x_at) / RFU SOX15 (11748057_x_at) / Fold change /veh SOX15 (11748057_x_at) / RFU CD79A (11719716_a_at) / Fold change /veh CD79A (11719716_a_at) / RFU HIST1H1D (11736915_at) / Fold change /veh HIST1H1D (11736915_at) / RFU CASKIN2 (11723855_a_at) / Fold change /veh CASKIN2 (11723855_a_at) / RFU LOC730098 (11760151_x_at) / Fold change /veh LOC730098 (11760151_x_at) / RFU OR4N2 (11742367_at) / Fold change /veh OR4N2 (11742367_at) / RFU PRRT2 (11749266_a_at) / Fold change /veh PRRT2 (11749266_a_at) / RFU SNX32 (11753110_a_at) / Fold change /veh SNX32 (11753110_a_at) / RFU CDHR5 (11726645_a_at) / Fold change /veh CDHR5 (11726645_a_at) / RFU RCAN1 (11760418_a_at) / Fold change /veh RCAN1 (11760418_a_at) / RFU FAM167A (11723789_a_at) / Fold change /veh FAM167A (11723789_a_at) / RFU FAM26E (11764081_at) / Fold change /veh FAM26E (11764081_at) / RFU ISYNA1 (11749810_s_at) / Fold change /veh ISYNA1 (11749810_s_at) / RFU ACY1 (11761880_at) / Fold change /veh ACY1 (11761880_at) / RFU 11764098_at / Fold change /veh 11764098_at / RFU SAMD14 (11745864_x_at) / Fold change /veh SAMD14 (11745864_x_at) / RFU NPB (11741838_a_at) / Fold change /veh NPB (11741838_a_at) / RFU TMPRSS6 (11731388_a_at) / Fold change /veh TMPRSS6 (11731388_a_at) / RFU KRTAP10-2 (11738614_at) / Fold change /veh KRTAP10-2 (11738614_at) / RFU ARHGAP8 /// PRR5-ARHGAP8 (11727945_x_at) / Fold change /veh ARHGAP8 /// PRR5-ARHGAP8 (11727945_x_at) / RFU KRTAP5-7 /// NADSYN1 (11734609_at) / Fold change /veh KRTAP5-7 /// NADSYN1 (11734609_at) / RFU RASL12 (11751679_a_at) / Fold change /veh RASL12 (11751679_a_at) / RFU CDKN2B (11736163_a_at) / Fold change /veh CDKN2B (11736163_a_at) / RFU PRF1 (11729649_at) / Fold change /veh PRF1 (11729649_at) / RFU, ZNF638 /// ZNF638-IT1 / Fold change vs veh, ZNF638 /// ZNF638-IT1 / RFU, PANK3 / Fold change vs veh, PANK3 / RFU, SH3YL1 / Fold change vs veh, SH3YL1 / RFU, ZEB2 / Fold change vs veh, ZEB2 / RFU, NRIP1 / Fold change vs veh, NRIP1 / RFU, PTTG1IP / Fold change vs veh, PTTG1IP / RFU, CAPN2 / Fold change vs veh, CAPN2 / RFU, MED14 / Fold change vs veh, MED14 / RFU, SNORA58 / Fold change vs veh, SNORA58 / RFU, C1orf63 / Fold change vs veh, C1orf63 / RFU, LRRFIP1 / Fold change vs veh, LRRFIP1 / RFU, NDUFAF7 / Fold change vs veh, NDUFAF7 / RFU, SLC12A2 / Fold change vs veh, SLC12A2 / RFU, IBTK / Fold change vs veh, IBTK / RFU, ESF1 / Fold change vs veh, ESF1 / Fold change vs veh, TMEM50B / RFU, TAOK1 / Fold change vs veh, TAOK1 / RFU, ACBD3 / Fold change vs veh, ACBD3 / RFU, TMA16 / Fold change vs veh, TMA16 / RFU, RWDD3 / Fold change vs veh, RWDD3 / RFU, BCAT1 / Fold change vs veh, BCAT1 / RFU, EDEM3 / Fold change vs veh, EDEM3 / RFU, TMEM33 / Fold change vs veh, TMEM33 / RFU, WDR75 / Fold change vs veh, WDR75 / RFU, AHCTF1 / Fold change vs veh, AHCTF1 / RFU, TFRC / Fold change vs veh, TFRC / RFU, ZDHHC17 / Fold change vs veh, ZDHHC17 / RFU, NOM1 / Fold change vs veh, NOM1 / RFU, ARL8B / Fold change vs veh, ARL8B / RFU, ZBTB11 / Fold change vs veh, ZBTB11 / RFU, TAMM41 / Fold change vs veh, TAMM41 / RFU, KIAA1704 /// LOC100996395 / Fold change vs veh, KIAA1704 /// LOC100996395 / RFU, ING1 / Fold change vs veh, ING1 / RFU, TRMT61B / Fold change vs veh, TRMT61B / RFU, FUBP3 / Fold change vs veh, FUBP3 / RFU, TP53 / Fold change vs veh, TP53 / RFU, TNKS2 / Fold change vs veh, TNKS2 / RFU, ZFP14 / Fold change vs veh, ZFP14 / RFU, ACTR2 / Fold change vs veh, ACTR2 / RFU, PPP3R1 / Fold change vs veh, PPP3R1 / RFU, PIK3R1 / Fold change vs veh, PIK3R1 / RFU, HNRNPA1 / Fold change vs veh, HNRNPA1 / RFU, RNF170 / Fold change vs veh, RNF170 / RFU, ZNF28 / Fold change vs veh, ZNF28 / RFU, RNGTT / Fold change vs veh, RNGTT / RFU, OGT / Fold change vs veh, OGT / RFU, BRD1 / Fold change vs veh, BRD1 / RFU, MARS / Fold change vs veh, MARS / RFU, ZNF655 / Fold change vs veh, ZNF655 / RFU, FAHD1 / Fold change vs veh, FAHD1 / RFU, BDP1 / Fold change vs veh, BDP1 / RFU, LRRCC1 / Fold change vs veh, LRRCC1 / RFU, ARID1A / Fold change vs veh, ARID1A / RFU, ZNF146 / Fold change vs veh, ZNF146 / RFU, ZNF330 / Fold change vs veh, ZNF330 / RFU, GPN3 / Fold change vs veh, GPN3 / RFU, C9orf123 / Fold change vs veh, C9orf123 / RFU, N4BP2L2 / Fold change vs veh, N4BP2L2 / RFU, ARFIP1 / Fold change vs veh, ARFIP1 / RFU, FAM179B / Fold change vs veh, FAM179B / RFU, BCL10 / Fold change vs veh, BCL10 / RFU, UHRF1BP1L / Fold change vs veh, UHRF1BP1L / RFU, BET1 / Fold change vs veh, BET1 / RFU, CNOT2 / Fold change vs veh, CNOT2 / RFU, ZNF268 / Fold change vs veh, ZNF268 / Fold change vs veh, ZNF507 / RFU, DGCR2 / Fold change vs veh, DGCR2 / RFU, WDSUB1 / Fold change vs veh, WDSUB1 / Fold change vs veh, HSP90B1 /// MIR3652 / RFU, ADSS / Fold change vs veh, ADSS / RFU, GK / Fold change vs veh, GK / RFU, ZNF148 / Fold change vs veh, ZNF148 / RFU, TAF9 / Fold change vs veh, TAF9 / RFU, SLC1A5 / Fold change vs veh, SLC1A5 / RFU, SLMO2 / Fold change vs veh, SLMO2 / RFU, ABCC4 / Fold change vs veh, ABCC4 / RFU, LOC101060439 /// RAP1B / Fold change vs veh, LOC101060439 /// RAP1B / RFU, RFX7 / Fold change vs veh, RFX7 / RFU, GTPBP10 / Fold change vs veh, GTPBP10 / RFU, CNEP1R1 / Fold change vs veh, CNEP1R1 / RFU, BIVM-ERCC5 /// ERCC5 / Fold change vs veh, BIVM-ERCC5 /// ERCC5 / RFU, ILF3 / Fold change vs veh, ILF3 / RFU 11762660_at / Fold change /veh 11762660_at / RFU VCAN (11757783_s_at) / Fold change /veh VCAN (11757783_s_at) / RFU DDX43 (11728927_at) / Fold change /veh DDX43 (11728927_at) / RFU KRT8 (11758188_x_at) / Fold change /veh KRT8 (11758188_x_at) / RFU NKD1 (11759106_at) / Fold change /veh NKD1 (11759106_at) / RFU SRD5A1 (11742802_a_at) / Fold change /veh SRD5A1 (11742802_a_at) / RFU TPSAB1 /// TPSB2 (11721975_s_at) / Fold change /veh TPSAB1 /// TPSB2 (11721975_s_at) / RFU GSTM3 (11746129_a_at) / Fold change /veh GSTM3 (11746129_a_at) / RFU IL23R (11737362_x_at) / Fold change /veh IL23R (11737362_x_at) / RFU TMEM51 (11727254_a_at) / Fold change /veh TMEM51 (11727254_a_at) / RFU PIWIL2 (11732686_x_at) / Fold change /veh PIWIL2 (11732686_x_at) / RFU ORM1 (11744905_x_at) / Fold change /veh ORM1 (11744905_x_at) / RFU CCDC152 (11743942_at) / Fold change /veh CCDC152 (11743942_at) / RFU ECM1 (11717891_a_at) / Fold change /veh ECM1 (11717891_a_at) / RFU IL23R (11748794_a_at) / Fold change /veh IL23R (11748794_a_at) / RFU TNFAIP8L3 (11732012_x_at) / Fold change /veh TNFAIP8L3 (11732012_x_at) / RFU MBOAT4 (11741988_at) / Fold change /veh MBOAT4 (11741988_at) / RFU 11764193_at / Fold change /veh 11764193_at / RFU TMEM53 (11763286_at) / Fold change /veh TMEM53 (11763286_at) / RFU MAGEB2 (11727129_at) / Fold change /veh MAGEB2 (11727129_at) / RFU TMEM200A (11744735_a_at) / Fold change /veh TMEM200A (11744735_a_at) / RFU CCDC152 (11751479_a_at) / Fold change /veh CCDC152 (11751479_a_at) / RFU FAM211A (11726209_a_at) / Fold change /veh FAM211A (11726209_a_at) / RFU RGS16 (11746705_a_at) / Fold change /veh RGS16 (11746705_a_at) / RFU VCAN (11755009_s_at) / Fold change /veh VCAN (11755009_s_at) / RFU RHOB (11743442_s_at) / Fold change /veh RHOB (11743442_s_at) / RFU RGS16 (11720943_a_at) / Fold change /veh RGS16 (11720943_a_at) / RFU RGS16 (11720944_at) / Fold change /veh RGS16 (11720944_at) / RFU, VPS4B / Fold change vs veh, VPS4B / RFU, CREB1 / Fold change vs veh, CREB1 / RFU, DNAJC13 / Fold change vs veh, DNAJC13 / RFU, GNAQ / Fold change vs veh, GNAQ / RFU, CDK5R1 / Fold change vs veh, CDK5R1 / RFU, ZRANB3 / Fold change vs veh, ZRANB3 / RFU, CUL4A / Fold change vs veh, CUL4A / RFU, CCNY / Fold change vs veh, CCNY / RFU, UFL1 / Fold change vs veh, UFL1 / RFU, COG3 / Fold change vs veh, COG3 / RFU, DIAPH2 / Fold change vs veh, DIAPH2 / RFU, SKA2 / Fold change vs veh, SKA2 / RFU, AFF3 / Fold change vs veh, AFF3 / RFU, LMF1 / Fold change vs veh, LMF1 / RFU, IPO11 / Fold change vs veh, IPO11 / RFU, DFFB / Fold change vs veh, DFFB / RFU, FOXP1 / Fold change vs veh, FOXP1 / RFU, CARD8 / Fold change vs veh, CARD8 / RFU, STRN3 / Fold change vs veh, STRN3 / RFU, ADK / Fold change vs veh, ADK / RFU, RASSF2 / Fold change vs veh, RASSF2 / RFU, WIPF1 / Fold change vs veh, WIPF1 / RFU, LARP1B / Fold change vs veh, LARP1B / RFU, RASA1 / Fold change vs veh, RASA1 / RFU, RB1 / Fold change vs veh, RB1 / RFU, PPFIA1 / Fold change vs veh, PPFIA1 / RFU, MAT2A / Fold change vs veh, MAT2A / RFU, CCT5 / Fold change vs veh, CCT5 / RFU, WDR92 / Fold change vs veh, WDR92 / RFU, CUX1 / Fold change vs veh, CUX1 / RFU, TTC7A / Fold change vs veh, TTC7A / RFU, TMEM135 / Fold change vs veh, TMEM135 / RFU, DEPTOR / Fold change vs veh, DEPTOR / RFU, CPM / Fold change vs veh, CPM / RFU, DNAJB6 / Fold change vs veh, DNAJB6 / RFU, CACNA2D3 / Fold change vs veh, CACNA2D3 / RFU, DTX4 / Fold change vs veh, DTX4 / RFU, TFCP2 / Fold change vs veh, TFCP2 / RFU, GMCL1 /// GMCL1P1 / Fold change vs veh, GMCL1 /// GMCL1P1 / RFU, AEBP2 / Fold change vs veh, AEBP2 / RFU, SNHG1 /// SNORD22 /// SNORD25 /// SNORD26 /// SNORD27 /// SNORD28 /// SNORD29 /// SNORD31 / Fold change vs veh, SNHG1 /// SNORD22 /// SNORD25 /// SNORD26 /// SNORD27 /// SNORD28 /// SNORD29 /// SNORD31 / Fold change (Aza/veh), C12orf56 (ProbeSet 11735607_a_at) / Fold change (ACY-1035/veh), C12orf56 (ProbeSet 11735607_a_at) / Fold change (Aza/veh), FGFR1OP (ProbeSet 11751329_s_at) / Fold change (ACY-1035/veh), FGFR1OP (ProbeSet 11751329_s_at) / Fold change (Aza/veh), VPS36 (ProbeSet 11739960_a_at) / Fold change (ACY-1035/veh), VPS36 (ProbeSet 11739960_a_at) / RFU SYPL1 (11715823_x_at) / Fold change /veh SYPL1 (11715823_x_at) / RFU IGFBP7 (11715501_s_at) / Fold change /veh IGFBP7 (11715501_s_at) / RFU REEP3 (11722064_at) / Fold change /veh REEP3 (11722064_at) / RFU IGLL1 (11728026_x_at) / Fold change /veh IGLL1 (11728026_x_at): dose or concentration left out as unconfirmed. The settings on record: ProbeSet 11738335_x_at; LIST B.

On to `Nc1ncn([C@@H]2O[C@H](CO)[C@@H](O)[C@H]2O)c(=O)n1` [azacitidine], for which the “Fold change vs veh, TP53” value is listed as 0.89.
